Clb data for 1 compound are collected here from PMC5108032, “Discovery of a Quinoline-4-carboxamide Derivative with a Novel Mechanism of Action, Multistage Antimalarial Activity, and Potent in Vivo Efficacy” (Journal of Medicinal Chemistry, 2016).

A short description of the data set: Rat pharmacokinetics. It is filed as in vivo, male Sprague Dawley rats. As to conditions: male Sprague Dawley rat, intravenous at 1 mg/kg. The protocol:
(100 µl) was then removed from both acceptor and donor compartments and mixed with acetonitrile (80 µl) containing an internal standard. The samples were centrifuged (10 min, 5 °C, 3270 g) to sediment precipitated protein and sealed prior to UPLC-MS/MS analysis using a Quattro Premier XE (Waters Corp, USA). Pe was calculated as shown in the below equation:
Pe (nm/sec) = 107 x - In [1 - CA (t) / Cequi]
CA(t) = peak area of compound present in acceptor well at time t = 18000 sec Cequi = [CD(t) * VD + CA(t) * VA] / (VD + VA)
VA = acceptor well volume
CD(t) = peak area of compound present in donor well at time t = 18000 sec Recovery of compound from donor and acceptor wells was calculated and data was only accepted when recovery exceeded 70 %. […]
Compound was dosed as a bolus solution intravenously (12) at 3mg free base/kg (dose volume: 5 mL/kg; dose vehicle: 10% DMSO, 90% saline) to female NMRI mice (n=3) or dosed orally (12 and 13) by gavage as a solution at 10 mg free base/kg (dose volume: 10mL/kg; Dose vehicle: 5 or 10% DMSO; 40% PEG400; 50 or 55% distilled water) to female NMRI mice (n=3/dose level). […] The level of each compound in mouse blood was determined by UPLC-MS/MS as previously reported.9 Pharmacokinetic parameters were derived from the blood concentration time curve using PKsolutions software v 2.0 (Summit Research Services, USA). […]

Compound `O=C(NCCN1CCCC1)c1cc(-c2ccc(CN3CCOCC3)cc2F)nc2ccc(F)cc12` [Compound 41] yielded a Clb of 32 mL min^–1 kg^–1.
